Measurements: publication doi:10.1101/2021.09.28.462264v1 (biorxiv, 2021)
Read-outs that look alike come from different tables or passages of the source.

What was measured:
Settings in all cases: 10 mM MgCl2, 100 mM Tris pH 8.0, 25 °C
PcIBMS1 [1] = experiment: DTNB end-point spectrophotometric assay; format: biochemical, Pogostemon cablin
PcIBMS1 [2] = system: PcIBMS1
PcIPMS1 [3] = experiment: DTNB end-point spectrophotometric assay; format: biochemical, Pogostemon cablin
PcIPMS1 [4] = system: PcIPMS1

SMILES | Km (PcIBMS1 [1]; 1 mM acetyl-CoA) [µM] | Km (PcIBMS1 [2]; 1 mM acetyl-CoA) [µM] | Km (PcIPMS1 [3]; 1 mM acetyl-CoA) [µM] | Km (PcIPMS1 [4]; 1 mM acetyl-CoA) [µM] | Km (PcIBMS1 [1]; 2 mM 4-methyl-2-oxovalerate) [µM] | Km (PcIPMS1 [3]; 2 mM 2-oxoisovalerate) [µM] | Km (PcIPMS1 [4]; 2 mM 2-oxoisovalerate) [µM] | Km (PcIBMS1 [2]; 2 mM 4-methyl-2-oxovalerate) [µM]
CC(C)CC(=O)C(=O)O [4-methyl-2-oxovalerate] | 140 ± 39.4 | 95 ± 17.9 | – | – | – | – | – | –
CC(C)C(=O)C(=O)O [2-oxoisovalerate] | 1300 ± 128 | 444 ± 44.4 | 288 ± 8.2 | 622 ± 58.3 | – | – | – | –
CC(=O)SCCNC(=O)CCNC(=O)[C@H](O)C(C)(C)COP(=O)(O)OP(=O)(O)OC[C@H]1O[C@@H](n2cnc3c(N)ncnc32)[C@H](O)[C@@H]1OP(=O)(O)O [acetyl-CoA] | – | – | – | – | 145 ± 21.2 | 48.1 ± 2.8 | 22.7 ± 1.9 | 132 ± 6.5
